Experimental findings from patent US10494412B2, “Peptides” (HOX THERAPEUTICS LIMITED, priority 2015, dated 2019) are described below.

Where two headings read alike, the source gives them in different places. Where no end group is shown, it is not given here.

Data set [1] concerns PC3 cells. The data set is described as follows: cells. Conditions: Homo sapiens, PC-3, 2 h, read-out: PC3 2 hr IC50 (±SD).
Procedure: (§1) The cytotoxicity of the peptides on the prostate cancer derived cell lines DU145 and PC3 was tested as previously described (Morgan et al. 2014, ibid), using the MTT assay for metabolic activity. The cytotoxic drug Docetaxel (a standard chemotherapeutic drug) was included as a positive control.
(§2) Doses are in μM (micromoles), and the mean value from 3 experiments is given along with the standard deviation.
The nature of data set [2]: Body weight of PC3 tumour bearing mice. The data set is classed as in vivo. The note with it: intratumoural. As for the experimental part:
PC3 cells were injected subcutaneously into female or male Balb-c nude mice aged 6 to 12 weeks (Harlan, UK). When the tumour size reached 100 mm^3 mice were injected intratumouraly with PBS, HXR9 or HTL001 at the intervals shown in FIG. 3. Mice were sacrificed when the tumour size reached 1000 mm^3 or at the end of the experiment (36 days). Tumours were then excised and immersed in 10% formalin for 24 h and processed for paraffin embedding. 5 μm slices of xenografts in paraffin blocks were made using microtome and different proteins detected by immunohistochemistry.

The target of the next data set is T1, HOXB4/PBX2 dimers (Homo sapiens, UniProt P40425).
T1 construct: endogenous in cells; host or cells: MDA-MB-231
T1 sequence (P40425 1-430): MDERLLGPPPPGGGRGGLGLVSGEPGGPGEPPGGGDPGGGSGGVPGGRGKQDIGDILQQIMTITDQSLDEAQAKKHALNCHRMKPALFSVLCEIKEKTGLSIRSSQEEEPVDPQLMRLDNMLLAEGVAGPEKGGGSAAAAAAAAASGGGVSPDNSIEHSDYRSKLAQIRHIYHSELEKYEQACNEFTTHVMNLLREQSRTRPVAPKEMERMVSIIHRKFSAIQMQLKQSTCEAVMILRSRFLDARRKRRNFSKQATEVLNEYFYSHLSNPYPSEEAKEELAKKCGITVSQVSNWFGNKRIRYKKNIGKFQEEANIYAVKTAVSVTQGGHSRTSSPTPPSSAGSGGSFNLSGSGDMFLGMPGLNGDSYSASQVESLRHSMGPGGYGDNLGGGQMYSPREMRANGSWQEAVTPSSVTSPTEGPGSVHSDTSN
Kind of data set: Cell based ELISA assay for HOX/PBX binding. Conditions: MDA-MB-231 cells, 4 hours, compared to DMSO, SEM, read-out: % inhibition of HOXB4/PBX2 dimer formation. As for the experimental part: In order to directly assess the ability of each peptide to disrupt HOX/PBX binding a cell-based assay system was developed that could allow the formation of HOX/PBX/DNA dimers. Cultured MDA-MB-231 cells were treated with 10 μM of each peptide for 4 hours and then used to generate a cell lysate using a standard preparation method as described below. HOXB4/PBX2 dimers were then measured using an ELISA-based system as detailed in the table below. The values from this assay are expressed as % inhibition of dimer formation compared to a negative control (DMSO).
1. Collect approximately 5.0×10^7 cells by low-speed centrifugation at RT for 5 min. Carefully remove culture medium.
2. Wash the cellular debris (pellet) with PBS at RT, and collect by low-speed centrifugation. Carefully remove supernatant (total protein).
3. Add 1.0 ml of pre-cold RIPA buffer (or other appropriate buffer) with freshly added (Protease Inhibitors) and/or (Phosphatase Inhibitors). Gently resuspend cells in RIPA buffer with a pipet and incubate on ice for 30 min.
4. Further disrupt and homogenize cells by passing through a 21-gauge needle, dounce homogenization or sonication, taking care not to raise the temperature of the lysate. (Optional: Add 10 μl of 10 mg/ml PMSF stock) Incubate 30 min on ice.
5. Transfer to microcentrifuge tube(s) and centrifuge at 10,000×g for 10 min at 4° C. […]
On the technique in general: In an ELISA, binding on a coated surface is turned into a signal by an enzyme label.

Data set [3] concerns PC3 cells. The note with it: for PC3 2 hr IC50 change relative to HXR9: fold difference in IC50 relative to HXR9, 2 hr; for PC3 96 hr IC50 change relative to HXR9: fold difference in IC50 relative to HXR9, 96 hr.
Procedure: as §1, §2
The mark [4] stands for this setting: read-out: PC3 2 hr IC50 (±SD), PC3 cells, 2 hr, MTT, mean of 3 experiments ± SD.
[5] abbreviates: read-out: PC3 96 hr IC50 (±SD), PC3 cells, 96 hr, MTT, mean of 3 experiments ± SD.

Consider `CC(=O)O[C@@]12CO[C@@H]1C[C@H](O)[C@@]1(C)C(=O)[C@H](O)C3=C(C)[C@@H](OC(=O)[C@H](O)[C@@H](NC(=O)OC(C)(C)C)c4ccccc4)C[C@@](O)([C@@H](OC(=O)c4ccccc4)[C@H]21)C3(C)C` [Docetaxel], for which the IC50 in the data set with PC3 cells [1] is 4 µM.

With “WYKWMKKAARRRRRRRRR [HTL001, WYKWMKKAARRRRRRRRR]”, the “Maximum % weight loss” value in data set [2] was found to be 0%. Further, the inhibition at 10 µM on HOXB4/PBX2 dimers turned out to be 28.2%.

WYKWMKKHHRRRRRRRRR [HXR9KS3]: in the data set with PC3 cells [3], the “PC3 2 hr IC50 change relative to HXR9” value worked out at 1.53 fold and the “PC3 96 hr IC50 change relative to HXR9” value came to 2.53 fold. Besides, in the data set on PC3 cells [3] (setting [4]), the IC50 is 19 µM. The half-inhibitory concentration (IC50) in the data set on PC3 cells [3] (setting [5]) came out at 17 µM.

For WYKWMKKRRRRRRRRR [HXR9KS3noH], in the data set with PC3 cells [3], the “PC3 2 hr IC50 change relative to HXR9” value came out at 1.32 fold and the “PC3 96 hr IC50 change relative to HXR9” value turned out to be 2.05 fold. In addition, the IC50 in the data set on PC3 cells [3] (setting [4]) is 22 µM. Moreover, the concentration for half-maximal inhibition (IC50) in the data set with PC3 cells [3] (setting [5]) came out at 21 µM.

Regarding “WYPAMKKHHRRRRRRRRR [CXR9, WYPAMKKHHRRRRRRRRR]”, the IC50 with PC3 cells [3] (2 h) and with PC3 cells [3] (96 h) was greater than 80 µM in each case.

WYPWMKKAARRRRRRRRR [HXR9AS7]: in the data set on PC3 cells [3], the “PC3 2 hr IC50 change relative to HXR9” value worked out at 0.64 fold and the “PC3 96 hr IC50 change relative to HXR9” value is reported as 1.08 fold. Moreover, the concentration for half-maximal inhibition (IC50) in the data set with PC3 cells [3] (setting [4]) came to 45 µM. For the same molecule, the IC50 with PC3 cells [3] (setting [5]) was found to be 40 µM.

Turning to “WYPWMKKHHRRRRRRRRR [HXR9, WYPWMKKHHRRRRRRRRR]”, in data set [2], the “Maximum % weight loss” value was 0%.

On to WYPWMKKRRRRRRRRR [HXR9noH], for which, in the data set on PC3 cells [3], the “PC3 2 hr IC50 change relative to HXR9” value is on record as 0.48 fold and the “PC3 96 hr IC50 change relative to HXR9” value was 0.80 fold. In addition, in the data set with PC3 cells [3] (setting [4]), the IC50 is 60 µM. The IC50 with PC3 cells [3] (setting [5]) was 54 µM.

As usually defined, the IC50 is the concentration that inhibits the measured activity by half.
